US20250002460A1, “SORTILIN INHIBITORS” (SORTINA PHARMA AB, priority 2021, published 2025)

Key:
[1] = system: MDA-MB-231 breast cancer cell line; assay: Secondary sphere formation assay in MDA-MB-231; format: cell-based; conditions: 48 hours; for progranulin induced secondary sphere formation: MDA-MB-231, in combination with 500 nM progranulin; for baseline sphere formation, compound used alone: MDA-MB-231, without progranulin
Description: (§1) C-terminal Progranulin (progranulin) (Casio, peptide sequence: […], SEQ ID NO: 5) were reconstituted in sterile PBS upon delivery, aliquoted and stored at −20° C. Working stock concentrations were achieved by dilution in culture media. […] 5% CO2 and 21% O2 before performing the primary followed by secondary sphere formation assay.
(§2) The sphere formation assay was performed as described previously (Mammary Gland Biol Neoplasia, 2012, 17(2): 111-117). Briefly, single cell suspensions were obtained following treatment with respective sortilin inhibitors SI1, SI5, SI8, SI25, SI32, SI39, SI51 and SI62 of the invention and seeded in phenol red-free DMEM/F-12 (Gibco®, Life Technologies), supplemented with 1% B27 supplement (Fisher Scientific, Invitrogen), 1% P/S and 20 ng/ml EGF (BD Biosciences) onto non-adherent polyhema-coated plates. After cultivation for five days, single cell suspensions were obtained from the primary spheres and seeded again in phenol red-free DMEM/F-12 supplemented with 1% B27 supplement, 1% P/S and 20 ng/ml EGF onto non-adherent polyhema-coated plates for 5-7 days. Subsequently, spheres greater than 50 μm in diameter were counted manually in the microscope.

human sortilin (sSORT) = biological target: T1, human sortilin (sSORT) (Homo sapiens, UniProt Q99523); assay: Neurotensin competitive fluorescence polarization binding assay (FPA); conditions: mean IC50 values for sortilin inhibitors, IC50 (nM), 100 nM sSORT, 10 nM Neurotensin-Ahx-FITC, 1 h room temperature
T1 sequence (Q99523 78-756 limits assumed): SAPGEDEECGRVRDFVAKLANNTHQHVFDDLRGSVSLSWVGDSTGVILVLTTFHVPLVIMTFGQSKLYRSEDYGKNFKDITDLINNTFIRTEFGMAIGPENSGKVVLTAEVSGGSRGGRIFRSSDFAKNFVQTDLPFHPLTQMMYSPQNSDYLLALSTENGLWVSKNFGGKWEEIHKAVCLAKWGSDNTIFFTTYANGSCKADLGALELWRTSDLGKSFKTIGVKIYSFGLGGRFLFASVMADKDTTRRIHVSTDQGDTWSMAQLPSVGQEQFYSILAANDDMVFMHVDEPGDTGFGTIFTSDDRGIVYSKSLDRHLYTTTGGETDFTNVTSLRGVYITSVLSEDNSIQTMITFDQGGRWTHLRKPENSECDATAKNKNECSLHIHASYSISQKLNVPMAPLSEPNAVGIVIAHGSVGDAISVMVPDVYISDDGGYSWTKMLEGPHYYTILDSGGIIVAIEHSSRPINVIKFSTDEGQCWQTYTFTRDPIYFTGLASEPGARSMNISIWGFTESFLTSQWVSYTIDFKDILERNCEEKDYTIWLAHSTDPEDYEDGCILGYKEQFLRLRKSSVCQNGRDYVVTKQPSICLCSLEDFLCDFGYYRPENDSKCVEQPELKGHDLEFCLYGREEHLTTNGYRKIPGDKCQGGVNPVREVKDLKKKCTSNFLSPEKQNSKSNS
Description: Fresh 0.1% bovine serum albumin (BSA) was added to the assay buffer to obtain the final concentration: 50 mM HEPES, pH 7.4; 100 mM NaCl; 2.0 mM CaCl2; 0.1% BSA; 0.1% TWEEN® 20. The sortilin inhibitors of the invention and reference compounds (see Table 1) analyzed in the screen and neurotensin (used as an assay control) were serially diluted in ten different concentrations in assay buffer. In each well of a Nunc® MaxiSorp™ 384-well plate (Sigma Aldrich), 100 nM sSORT was mixed with pre-diluted sortilin inhibitors and 10 nM Neurotensin-Ahx-FITC in assay buffer adjusted to contain 1% DMSO in a final volume of 20 μl. The plate was then briefly centrifuged prior to 1 h incubation at room temperature in the dark.

[2] = system: colon cancer cell line HT-29; assay: Sphere formation assay in HT-29; format: cell-based; conditions: HT-29, FIG. 5
Description: as §1, §2

MDA-MB-231 xenograft = MDA-MB-231 xenograft in vivo model, metastasis assessment; parameters: species or system NOD SCID gamma mice; conditions: compared to vehicle control; RC3 5-50 μg/day/mouse in drinking water for 21 days
Description: Luciferase tagged MDA-MB-231 cells were injected at a concentration of 0.2×10^6 cells subcutaneously into two sites of the flank of NOD SCID gamma mice (Taconic, Denmark). Cells were prepared in a 60% mixture of matrigel (growth factor reduced, BD Bioscience) and 40% complete media. The size of the tumors were determined by calliper measurement of the subcutaneous tumor mass two times per week and tumor volume was calculated according to the formula volume=(length×(width)^2/2). Assessments of metastasis were performed using the IVIS® whole body imager (PerkinElmer) based on luciferase expression from stably transfected cell lines.

[3] = system: melanoma cell line SK-MEL-30; assay: Sphere formation assay in SK-MEL-30; format: cell-based; conditions: SK-MEL-30, FIG. 6
Description: as §1, §2

Compound | progranulin induced secondary sphere formation [1] | baseline sphere formation, compound used alone [1] | IC50 (human sortilin (sSORT)) [nM] | colon cancer cell sphere formation [2] | lung metastasis / metastasis formation (MDA-MB-231 xenograft) | melanoma cancer cell sphere formation [3]
Cc1nc(N(C)C)ncc1C(=O)NC(/C=C/C(C)(C)C)C(=O)O (racemic) [SI1, (E)-2-[2-(dimethylamino)-4-methyl-5-pyrimidinylcarbonylamino]-5,5-dimethyl-3-hexenoic acid] | reduced sphere formation | reduced baseline sphere formation | 59 |  |  | 
CC(C)(C)/C=C/C(NC(=O)c1ccc(Oc2ccccc2)nc1)C(=O)O (racemic) [SI5, (E)-5,5-dimethyl-2-(6-phenoxynicotinoylamino)-3-hexenoic acid] | reduced sphere formation | reduced baseline sphere formation | 17 | reduced | reduced metastasis formation | 
Cc1cccc(NC(=O)c2ccc(C(F)(F)F)cc2C(=O)O)n1 [RC3, 2-(N-6-Methyl-2-pyridylcarbamoyl)-5-(trifluoromethyl)benzoic acid, reference compound] | reduced sphere formation | increased sphere formation |  |  | induced lung metastasis | 
CC(C)(C)/C=C/C(NC(=O)c1cc(Cl)c[nH]1)C(=O)O (stereo not shown) [SI8, (E)-2-(4-chloro-2-pyrrolylcarbonylamino)-5,5-dimethyl-3-hexenoic acid] | reduced sphere formation | reduced baseline sphere formation | 43 |  |  | 
CC(C)(C)/C=C/C(NC(=O)c1cccc(-n2ccnc2)c1)C(=O)O (stereo not shown) [SI25, (E)-5,5-dimethyl-2[m-(1-imidazolyl)benzoylamino]-3-hexenoic acid] |  | reduced baseline sphere formation | 31 |  |  | 
CC(C)(C)/C=C/C(NC(=O)c1cc(Cl)cs1)C(=O)O (stereo not shown) [SI32, (E)-2-(4-chloro-2-thienylcarbonylamino)-5,5-dimethyl-3-hexenoic acid] |  | reduced baseline sphere formation | 52 |  |  | 
CC(C)(C)/C=C/C(NC(=O)c1ccc(OCc2ccccc2)nc1)C(=O)O (stereo not shown) [SI39, (E)-2-[6-(benzyloxy)nicotinoylamino]-5,5-dimethyl-3-hexenoic acid] |  | reduced baseline sphere formation | 65 |  |  | 
CC(C)(C)/C=C/C(NC(=O)c1ccc(-c2cccs2)cc1)C(=O)O (stereo not shown) [SI51, (E)-5,5-dimethyl-2-[p-(2-thienyl)benzoylamino]-3-hexenoic acid] |  | reduced baseline sphere formation | 80 |  |  | 
CC(C)(C)/C=C/C(NC(=O)c1cc(Cl)c(Cl)s1)C(=O)O (stereo not shown) [SI62, (E)-2-(4,5-dichloro-2-thienylcarbonylamino)-5,5-dimethyl-3-hexenoic acid] |  | reduced baseline sphere formation | 61 |  |  | reduced
